Source: patent US8053436B1, “9-(piperazinylalkyl) carbazoles as bax-modulators” (Merck Serono SA, priority 1999, dated 2011)
Structures can show the parent of a compound that is named as a salt.

How the values were obtained:
[1] = molecular target: T1, Bid-induced Bax activation (mitochondria isolated from HeLa cells) (Homo sapiens, UniProt Q07812); assay: Mitochondria cytochrome c release triggered by Bid-induced Bax activation; format: biochemical; settings: Compounds were tested at 10 μM, 10 nM recombinant Bid
T1 construct: endogenous in cells; host or cells: mitochondria isolated from HeLa cells
Experimental: d) Effect of Compounds according to formula I onto the Release of Cytochrome c Triggered by Bid-Induced Bax Activation (Mitochondria Cytochrome c Release Triggered by Bid-Induced Bax Activation)
Mitochondria isolated from HeLa cells are incubated for 15 min at 30° C. in […] of KCl buffer in the presence or absence of 10 nM recombinant Bid. The various compounds (10 μM) are pre-incubated for 5 min prior to addition of Bid. Following incubation, mitochondria were centrifuged for 5 min at 13000 g at 4° C. and the supernatant is collected for cytochrome c analysis. Cytochrome c is detected by Western blotting. The cytochrome c bands are scanned and quantified using a Bio-Rad (GS-700 Imaging Densitometer).
(§1) The above set out 2 in vitro assays c) and d) involving the determination of mitochondrial cytochrome c release are based on immunochemical methods using the Western blot analysis. Alternatively, said quantitative cytochrome c determinations could be performed by using spectrophotometric means: • I. by recording the difference between reduced and oxidised cytochrome c by dual wavelength double beam spectrophotometry; • by measuring the rather intensive γ or Soret peak in the spectrum of cytochrome c (ε=100 mM^−1 cm^−1) is used for rapid and quantitative determination of the release of cytochrome c from isolated mitochondria.

[2] = molecular target: T2, recombinant Bax (Human Bax-α), mitochondria from mouse liver (Homo sapiens, UniProt Q07812); assay: In vitro assay for cytochrome c release (mitochondria cytochrome c release triggered by Bax activation); format: biochemical; settings: Compounds were tested at 5 μM, 200 nM recombinant Bax
T2 construct: Human Bax-α lacking 20 amino acids at the COOH-terminus; GST (cleaved yes); His-tag (alternative construct); made in house; host or cells: Escherichia coli
Description: The cytochrome c bands are scanned and quantified using a Bio-Rad (GS-700 Imaging Densitometer).
as §1

[3] = tested on: Sympathetic neurons from superior cervical ganglia (SCG) of newborn rats; assay: Sympathetic neuron culture and survival assay (neuronal survival); format: cell-based; settings: Compounds were tested at 10 μM; rat SCG neurons, NGF deprivation (anti NGF antibody), MTT 24 hours after cell death induction
Description: as §1
Cell death is induced at day 4 after plating by exposing the culture to medium containing 10 µg/ml of anti NGF antibody (Boehringer Mannheim Corp., Indianapolis, Ind.) and no NGF or arabinosine, in the presence or absence of piperazine derivatives of carbazole inhibitors according to formula I. 24 hours after cell death induction, determination of cell viability is performed by incubation of the culture for 1 hour, at 37° C. in 0.5 mg/ml of 3-(4,5-dimethyl-thiazol-2-yl)2,5diphenyl tetrazolium bromide (MTT). After incubation in MTT, cells are re-suspended in DMSO, transferred to a 96 MTT plate and cell viability is evaluated by measuring optical density at 590 nm.

T1 sequence (Q07812 whole entry): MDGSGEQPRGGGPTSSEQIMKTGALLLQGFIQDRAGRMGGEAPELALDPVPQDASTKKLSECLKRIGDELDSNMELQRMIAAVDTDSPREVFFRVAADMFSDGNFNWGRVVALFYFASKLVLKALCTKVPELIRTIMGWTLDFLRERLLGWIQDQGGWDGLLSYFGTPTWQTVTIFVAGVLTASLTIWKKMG
T2 sequence (Q07812 1-172 limits assumed): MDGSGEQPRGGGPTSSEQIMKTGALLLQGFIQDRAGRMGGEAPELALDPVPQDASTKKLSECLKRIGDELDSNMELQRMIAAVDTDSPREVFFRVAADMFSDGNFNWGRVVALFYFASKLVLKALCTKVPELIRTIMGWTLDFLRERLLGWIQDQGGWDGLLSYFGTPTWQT

Structure (SMILES) | melting point | Neuronal Survival (%) [3] | further results
O=C(CN1CCN(CC2CCCCC2)CC1)Cn1c2ccc(Br)cc2c2cc(Br)ccc21 (as salt: hydrochloride) [Example 109, (±)-1-[4-(cyclohexylmethyl)piperazin-1-yl]-3-(3,6-dibromocarbazol-9-yl)acetone] | 261 °C (dec.) |  | 
O=C(CN1CCN(CC2CCCCC2)CC1)Cn1c2ccccc2c2cc(-c3ccccc3)ccc21 (as salt: hydrochloride) [Example 111, (±)-1-[4-(Cyclohexylmethyl)piperazin-1-yl]-3-(3-phenylcarbazol-9-yl)acetone] | 231 °C (dec.) |  | 
OC(CN1CCN(Cc2ccc(F)cc2)CC1)Cn1c2ccccc2c2ccccc21 (racemic) (as salt: HCl) [Example 22, (±)-1-Carbazol-9-yl-3-[4-(4-fluoro-benzyl)-piperazin-1-yl]-propan-2-ol] | 251 °C (dec.) |  | 
OC(CN1CCN(Cc2ccc(F)cc2)CC1)Cn1c2ccccc2c2cc(-c3ccccc3)ccc21 (racemic) (as salt: HCl) [Example 24, (±)-1-[4-(4-Fluoro-benzyl)-piperazin-1-yl]-3-(3-phenyl-carbazol-9-yl)-propan-2-ol] | 188 °C |  | 
N#Cc1ccc2c(c1)c1cc(C#N)ccc1n2CC(O)CN1CCNCC1 (racemic) (as salt: HCl) [Example 25, (±)-9-(2-Hydroxy-3-piperazin-1-yl-propyl)-carbazole-3,6-dicarbonitrile] | 295 °C (dec.) |  | 
OC(CN1CCN(CCCc2ccccc2)CC1)Cn1c2ccccc2c2ccccc21 (racemic) (as salt: HCl) [Example 31, (±)-1-Carbazol-9-yl-3-[4-(3-phenyl-propyl)-piperazin-1-yl]-propan-2-ol] | 265 °C |  | 
O=C(c1ccccc1)N1CCN(CC(O)Cn2c3ccccc3c3ccccc32)CC1 (racemic) (as salt: HCl) [Example 36, (±)-1-[4-(3-Carbazol-9-yl-2-hydroxy-propyl)-piperazin-1-yl]-1-phenyl-methanone] | 153 °C |  | 
Cc1ccc2c3ccccc3n(CC(O)CN3CCN(Cc4ccccc4)CC3)c2c1 (racemic) (as salt: hydrochloride) [Example 1, (±)-1-(4-Benzyl-piperazin-1-yl)-3-(2-methyl-carbazol-9-yl)-propan-2-ol] | 239 °C (dec.) |  | 
OC(CN1CCN(CC2CCCCC2)CC1)Cn1c2ccccc2c2cc(-c3ccccc3)ccc21 (racemic) (as salt: hydrochloride) [Example 66, (±)-1-(4-Cyclohexylmethylpiperazin-1-yl)-3-(3-phenylcarbazol-9-yl)-propan-2-ol] | 265 to 270 °C (dec.) |  | 
O=S(=O)(Cc1ccccc1)N1CCN(CC(O)Cn2c3ccc(Br)cc3c3cc(Br)ccc32)CC1 (racemic) (as salt: hydrochloride) [Example 71, (±)-1-[4-(Benzylsulfonyl)piperazin-1-yl]-3-(3,6-dibromo-carbazol-9yl)propan-2-ol] | 253 °C (dec.) |  | 
OC(CN1CCN(Cc2ccc(Cl)c(Cl)c2)CC1)Cn1c2ccc(Br)cc2c2cc(Br)ccc21 (racemic) (as salt: hydrochloride) [Example 72, (±)-1-(3,6-Dibromo-carbazol-9-yl)-3-[4-(3,4-dichlorobenzyl)piperazin-1-yl]propan-2-ol] | 287 °C (dec.) |  | 
OC(CN1CCN(CC2CCCCC2)CC1)Cn1c2ccc(Cl)cc2c2cc(Cl)ccc21 (racemic) (as salt: hydrochloride) [Example 76, (±)-1-[4-(Cyclohexylmethyl)piperazin-1-yl]-3-(3,6-dichloro-carbazol-9-yl)propan-2-ol] | 302 °C (dec.) |  | 
OC(CN1CCN(Cc2ccnc3ccccc23)CC1)Cn1c2ccccc2c2cc(Br)ccc21 (racemic) (as salt: hydrochloride) [Example 106, (±)-1-(3-Bromocarbazol-9-yl)-3-[4-(quinolin-4-ylmethyl)piperazin-1-yl]propan-2-ol] | 192 °C (dec.) |  | 
OC(CN1CCN(Cc2ccccc2)CC1)Cn1c2ccc(Br)cc2c2cc(Br)ccc21 (racemic) [Example 6, (±)-1-(4-Benzyl-piperazin-1-yl)-3-(3,6-dibromo-carbazol-9-yl)-propan-2-ol] | 70 to 75 °C |  | 
OC(CN1CCN(Cc2ccc(F)cc2)CC1)Cn1c2ccc(Br)cc2c2cc(Br)ccc21 (racemic) [Example 23, (±)-1-(3,6-Dibromo-carbazol-9-yl)-3-[4-(4-fluoro-benzyl)-piperazin-1-yl]-propan-2-ol] |  | 45% | inhibition at 10 µM [1]: 68%; inhibition at 5 µM [2]: 51%
OC(CN1CCNCC1)Cn1c2ccccc2c2cc(-c3ccccc3)ccc21 (racemic) [Example 27, (±)-1-(3-Phenylcarbazol-9-yl)-3-piperazin-1-yl-propan-2-ol] |  | 40% | inhibition at 10 µM [1]: 88%; inhibition at 5 µM [2]: 40%
OC(CN1CCN(CC2CCCCC2)CC1)Cn1c2ccc(Br)cc2c2cc(Br)ccc21 (racemic) [Example 45, (±)−1-4-Cyclohexylmethylpiperazin-1-yl)-3-(3,6-dibromo-carbazol-9-yl)-propan-2-ol] |  | 60% | Mitochondria Cytochrome c Release Triggered by Bid-Induced Bax Activation (% Inhibition) [1]: 37%
OC(CN1CCN(Cc2ccsc2)CC1)Cn1c2ccc(Br)cc2c2cc(Br)ccc21 (racemic) [Example 60, (±)-1-(3,6-Dibromocarbazol-9-yl)-3-[4-(thien-3-ylmethyl)piperazin-1-yl]propan-2-ol] |  | 40% | inhibition at 10 µM [1]: 60%
COc1ccc(CN2CCN(CC(O)Cn3c4ccc(Br)cc4c4cc(Br)ccc43)CC2)cc1 (racemic) [Example 62, (±)-1-(3,6-Dibromocarbazol-9-yl)-3-[4-(4-methoxybenzyl)piperazin-1-yl]propan-2-ol] |  | 30% | inhibition at 10 µM [1]: 99%
OC(CN1CCN(CCN2CCOCC2)CC1)Cn1c2ccc(Br)cc2c2cc(Br)ccc21 (racemic) [Example 73, (±)-1-(3,6-Dibromo-carbazol-9-yl)-3-[4-(2-morpholin-4-ethyl)piperazin-1-yl]propan-2-ol] |  | 30% | Mitochondria Cytochrome c Release Triggered by Bid-Induced Bax Activation (% Inhibition) [1]: 74%
FC(F)(CN1CCNCC1)Cn1c2ccc(Br)cc2c2cc(Br)ccc21 (racemic) [Example 80, (±)-3,6-Dibromo-9-(2,2-difluoro-3-piperazin-1-ylpropyl)-carbazole] |  | 20% | inhibition at 10 µM [1]: 73%
OC(CN1CCN(CCN2CCOCC2)CC1)Cn1c2ccc(Cl)cc2c2cc(Cl)ccc21 (racemic) [Example 110, (±)-1-(3,6-Dichlorocarbazol-9-yl)-3-[4-(2-morpholin-4-ethyl)piperazin-1-yl]propan-2-ol] |  | 30% | Mitochondria Cytochrome c Release Triggered by Bid-Induced Bax Activation (% Inhibition) [1]: 87%
